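Each compound was tested at five concentrations against cells in 96-well plates for 48 hours. At the GI50, growth is halved.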 The source made the active and inactive calls. Cut-off read from the data, not from the text of the source: active = GI50 up to about 1.1 µM and inactive = higher.
Assays:
Assay in all cases: DTP human tumour cell line panel, 48 h
786-0 = test system: 786-0
EKVX = test system: EKVX
HCC 2998 = test system: HCC 2998
HCT-15 = test system: HCT-15
HOP-92 = test system: HOP-92
IGROV-1 = test system: IGROV-1
K562 = test system: K562
M14 = test system: M14
Malme-3M = test system: Malme-3M
NCI-H226 = test system: NCI-H226
NCI-H460 = test system: NCI-H460
RPMI-8226 = test system: RPMI-8226
RXF 393 = test system: RXF 393
SF-268 = test system: SF-268
SF-539 = test system: SF-539
SK-MEL-2 = test system: SK-MEL-2
SNB-75 = test system: SNB-75
SR = test system: SR
TK-10 = test system: TK-10
UO-31 = test system: UO-31

**Q.** Which results are given for `O=CN/C=C/c1ccccc1O`?
**A.** GI50 (786-0): > 100 µM (inactive); GI50 (EKVX): > 100 µM (inactive); GI50 (HCC 2998): > 100 µM (inactive); GI50 (HCT-15): > 100 µM; GI50 (HOP-92): > 100 µM (inactive); GI50 (IGROV-1): > 100 µM (inactive); GI50 (K562): > 31.6 µM (inactive); GI50 (M14): > 100 µM (inactive); GI50 (Malme-3M): > 100 µM (inactive); GI50 (NCI-H226): > 100 µM (inactive); GI50 (NCI-H460): > 100 µM (inactive); GI50 (RPMI-8226): > 100 µM (inactive); GI50 (RXF 393): > 100 µM (inactive); GI50 (SF-268): > 79.8 µM (inactive); GI50 (SF-539): > 100 µM (inactive); GI50 (SK-MEL-2): > 100 µM (inactive); GI50 (SNB-75): > 100 µM (inactive); GI50 (SR): > 100 µM (inactive); GI50 (TK-10): > 100 µM (inactive); GI50 (UO-31): > 100 µM (inactive)

— ChEMBL document CHEMBL1201862, “PubChem BioAssay data set” (2004)
